The results in this text go back to ChEMBL document CHEMBL1681728, “An automated, polymer-assisted strategy for the preparation of urea and thiourea derivatives of 15-membered azalides as potential antimalarial chemotherapeutics” (Bioorg Med Chem, 2011).

Type in all cases: functional, organism-based
Test [1] relates to Plasmodium falciparum. Briefly: Antimalarial activity against multidrug-resistant Plasmodium falciparum TM91C235 assessed as inhibition of [3H]hypoxanthine incorporation after 96 hrs by microtiter plate scintillation counting.
The test system of test [2] is Plasmodium falciparum. As to the kind of experiment: Antimalarial activity against chloroquine-sensitive Plasmodium falciparum D6 assessed as inhibition of [3H]hypoxanthine incorporation after 96 hrs by microtiter plate scintillation counting.
For test [3], the system named is Plasmodium falciparum. Briefly: Antimalarial activity against chloroquine-,pyrimethamine-resistant Plasmodium falciparum W2 assessed as inhibition of [3H]hypoxanthine incorporation after 96 hrs by microtiter plate scintillation counting.

Usually IC50 stands for the point on the concentration scale where inhibition reaches its midpoint. Take `CC[C@H]1OC(=O)[C@H](C)[C@@H](O[C@H]2C[C@@](C)(OC)[C@@H](O)[C@H](C)O2)[C@H](C)[C@@H](O[C@@H]2O[C@H](C)C[C@H](N(C)C)[C@H]2O)[C@](C)(O)C[C@@H](C)CN(CCCNC(=S)NC(C)C)[C@H](C)[C@@H](O)[C@]1(C)O`: the IC50 is 428 nM with Plasmodium falciparum [1], 2610 nM in the test on Plasmodium falciparum [2] and 1300 nM in the test on Plasmodium falciparum [3].

In the case of `CC[C@H]1OC(=O)[C@H](C)[C@@H](O[C@H]2C[C@@](C)(OC)[C@@H](O)[C@H](C)O2)[C@H](C)[C@@H](O[C@@H]2O[C@H](C)C[C@H](N(C)C)[C@H]2O)[C@](C)(O)C[C@@H](C)CN(CCCNC(=S)NCC(C)C)[C@H](C)[C@@H](O)[C@]1(C)O`, the IC50 with Plasmodium falciparum [1] came to 435 nM; in the test with Plasmodium falciparum [2] it was 689 nM; in the test on Plasmodium falciparum [3], 495 nM.

For the molecule `CC[C@H]1OC(=O)[C@H](C)[C@@H](O[C@H]2C[C@@](C)(OC)[C@@H](O)[C@H](C)O2)[C@H](C)[C@@H](O[C@@H]2O[C@H](C)C[C@H](N(C)C)[C@H]2O)[C@](C)(O)C[C@@H](C)CN(CCCNC(=O)Nc2ccc(OC)cc2)[C@H](C)[C@@H](O)[C@]1(C)O`, the IC50 in the test on Plasmodium falciparum [1] amounted to 442 nM; with Plasmodium falciparum [2], 1970 nM; in the test on Plasmodium falciparum [3], 256 nM.

On to `CC[C@H]1OC(=O)[C@H](C)[C@@H](O[C@H]2C[C@@](C)(OC)[C@@H](O)[C@H](C)O2)[C@H](C)[C@@H](O[C@@H]2O[C@H](C)C[C@H](N(C)C)[C@H]2O)[C@](C)(O)C[C@@H](C)CN(CCCNC(=O)NCc2ccc(OC)cc2)[C@H](C)[C@@H](O)[C@]1(C)O`, for which the figures for the IC50 in the test with Plasmodium falciparum [1], with Plasmodium falciparum [2] and in the test with Plasmodium falciparum [3] were 484 nM, 1620 nM and 204 nM, respectively.

On to `CC[C@H]1OC(=O)[C@H](C)[C@@H](O[C@H]2C[C@@](C)(OC)[C@@H](O)[C@H](C)O2)[C@H](C)[C@@H](O[C@@H]2O[C@H](C)C[C@H](N(C)C)[C@H]2O)[C@](C)(O)C[C@@H](C)CN(CCCNC(=O)Nc2c(C)noc2-c2ccccc2)[C@H](C)[C@@H](O)[C@]1(C)O`, for which the concentration for half-maximal inhibition (IC50) in the test with Plasmodium falciparum [1] stood at 492 nM; in the test on Plasmodium falciparum [2], 936 nM; with Plasmodium falciparum [3], 734 nM.

As to `CC[C@H]1OC(=O)[C@H](C)[C@@H](O[C@H]2C[C@@](C)(OC)[C@@H](O)[C@H](C)O2)[C@H](C)[C@@H](O[C@@H]2O[C@H](C)C[C@H](N(C)C)[C@H]2O)[C@](C)(O)C[C@@H](C)CN(CCCNC(=O)NCc2ccco2)[C@H](C)[C@@H](O)[C@]1(C)O`, the values for the half-maximal inhibitory concentration (IC50) in the test on Plasmodium falciparum [1], with Plasmodium falciparum [2] and in the test with Plasmodium falciparum [3] were 496 nM, 5610 nM and 287 nM, respectively.

On to `C=CCNC(=S)NCCCN1C[C@H](C)C[C@@](C)(O)[C@H](O[C@@H]2O[C@H](C)C[C@H](N(C)C)[C@H]2O)[C@@H](C)[C@H](O[C@H]2C[C@@](C)(OC)[C@@H](O)[C@H](C)O2)[C@@H](C)C(=O)O[C@H](CC)[C@@](C)(O)[C@H](O)[C@H]1C`, for which the IC50 amounted to 514 nM in the test on Plasmodium falciparum [1], 1140 nM in the test with Plasmodium falciparum [2] and 276 nM in the test with Plasmodium falciparum [3].

Take `CC[C@H]1OC(=O)[C@H](C)[C@@H](O[C@H]2C[C@@](C)(OC)[C@@H](O)[C@H](C)O2)[C@H](C)[C@@H](O[C@@H]2O[C@H](C)C[C@H](N(C)C)[C@H]2O)[C@](C)(O)C[C@@H](C)CN(CCCNC(=O)Nc2cccs2)[C@H](C)[C@@H](O)[C@]1(C)O`: the IC50 with Plasmodium falciparum [1] was determined as 549 nM; in the test with Plasmodium falciparum [2], 964 nM; in the test with Plasmodium falciparum [3], 721 nM.

As for `CC[C@H]1OC(=O)[C@H](C)[C@@H](O[C@H]2C[C@@](C)(OC)[C@@H](O)[C@H](C)O2)[C@H](C)[C@@H](O[C@@H]2O[C@H](C)C[C@H](N(C)C)[C@H]2O)[C@](C)(O)C[C@@H](C)CN(CCCNC(=O)Nc2ccc(CC#N)cc2)[C@H](C)[C@@H](O)[C@]1(C)O`, the values for the IC50 in the test with Plasmodium falciparum [1], with Plasmodium falciparum [2] and in the test with Plasmodium falciparum [3] were 571 nM, 1790 nM and 149 nM, respectively.
